From ChEMBL document CHEMBL1134759, “Synthesis of a novel C-10 spiro-epoxide of paclitaxel” (Bioorg Med Chem Lett, 2001)
pIC50: −log10 of the molar value.

Legend:
[1] = molecular target: Tubulin alpha chain (Sus scrofa) (UniProt P02550); test: Potency to that of potency of paclitaxel in Tubulin polymerization assay; assay type: functional
A2780 = test: In vitro inhibitory activity against Ovarian A2780 cell line was determined.; assay type: functional, cell-based; conditions: Homo sapiens
HCT-116 [2] = test: In vitro inhibitory activity against colon carcinoma HCT 116 cell line was determined.; assay type: functional, cell-based; conditions: Homo sapiens
HCT-116 [3] = test: In vitro inhibitory activity against Paclitaxel resistant colon carcinoma HCT VM46 cell line was determined.; assay type: functional, cell-based; conditions: Homo sapiens

Tubulin alpha chain (Sus scrofa), sequence (P02550 whole entry, looked up): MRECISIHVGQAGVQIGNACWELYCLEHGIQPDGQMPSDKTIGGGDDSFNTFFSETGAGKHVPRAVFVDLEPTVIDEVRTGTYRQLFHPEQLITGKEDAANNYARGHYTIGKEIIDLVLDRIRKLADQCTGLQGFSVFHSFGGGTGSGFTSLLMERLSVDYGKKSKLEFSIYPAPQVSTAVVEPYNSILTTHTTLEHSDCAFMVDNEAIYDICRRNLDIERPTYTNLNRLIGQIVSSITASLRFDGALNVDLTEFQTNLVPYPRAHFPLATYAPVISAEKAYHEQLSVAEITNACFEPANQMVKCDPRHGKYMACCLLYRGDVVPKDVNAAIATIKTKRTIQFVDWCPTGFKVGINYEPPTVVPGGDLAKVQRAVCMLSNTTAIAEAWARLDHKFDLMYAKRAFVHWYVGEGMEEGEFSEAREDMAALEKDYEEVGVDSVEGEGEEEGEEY

| Ratio [1] | pIC50 (A2780) | pIC50 (HCT-116 [2]) | pIC50 (HCT-116 [3]) | Structure (SMILES) |
| --- | --- | --- | --- | --- |
| 0.7 | 8.74 | 8.82 | 7.85 | COCO[C@H]1CC2OC[C@@]2(OC(C)=O)C2[C@H](OC(=O)c3ccccc3)C3(O)C[C@H](OC(=O)[C@H](O)[C@@H](NC(=O)c4ccccc4)c4ccccc4)C(C)=C(C3(C)C)[C@@]3(CO3)C(=O)[C@@]21C (some centres not stated) |
| 1 | 8.46 | 8.54 | < 6.93 | CC(=O)O[C@H]1C(=O)[C@@]2(C)C([C@H](OC(=O)c3ccccc3)C3(O)C[C@H](OC(=O)[C@H](O)[C@@H](NC(=O)c4ccccc4)c4ccccc4)C(C)=C1C3(C)C)[C@]1(OC(C)=O)COC1C[C@@H]2O (some centres not stated) |

| Structure (SMILES) | Ratio [1] | pIC50 (A2780) | pIC50 (HCT-116 [2]) | pIC50 (HCT-116 [3]) |
| --- | --- | --- | --- | --- |
| CC(=O)O[C@@]12COC1C[C@H](O)[C@@]1(C)C(=O)[C@@]3(CO3)C3=C(C)[C@@H](OC(=O)[C@H](O)[C@@H](NC(=O)c4ccccc4)c4ccccc4)CC(O)([C@@H](OC(=O)c4ccccc4)C21)C3(C)C (some centres not stated) | 0.5 | 8.60 | 8.70 | < 6.92 |
